# According to patent US8410152B2 (Max-Planck-Gesellschaft zur Forderung der Wissenschaften e. …, priority 2006, dated 2013):
# Experiments:
# [1] = test system: uninduced N2A cells; format: cell-based; conditions: cell death as percent of LDH released into medium vs total LDH, compound 10 μM
# Method: Neurotoxicity assay: Neurotoxicity was assessed using an LDH (lactate dehydrogenase) assay kit (Roche, Mannheim, Germany) according to the manufacturer's specifications. In the viability assay the aggregation inhibitor compound was added at a final concentration of 10 μM to uninduced N2A cells. The activity of LDH was measured spectrophotometrically at 492 nm. Cell death was calculated as percent of LDH released into medium, compared to total LDH obtained after total cell lysis.
# [2] = target: tau construct K19 (Homo sapiens, UniProt P10636); experiment: Thioflavine S (ThS) assay for aggregation of tau; format: biochemical; conditions: 10 μM tau construct K19, 2.5 μM heparin, ThS fluorescence; for DC50: read-out: DC50; for IC50: over night at 37° C., read-out: ID50 (the source's name)
# Chain of tau construct K19 (P10636 with tags, fused parts or gaps isoform P10636-2 limits assumed): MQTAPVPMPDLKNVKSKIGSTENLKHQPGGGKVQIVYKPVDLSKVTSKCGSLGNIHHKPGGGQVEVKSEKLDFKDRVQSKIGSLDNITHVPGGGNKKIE
# Method: Thioflavine S (ThS) Assay for aggregation of tau: 10 μM of the tau construct K19 were incubated with compounds in a concentration range from 1 nM up to 200 μM in the presence of 2.5 μM heparin in 50 mM NH4Ac buffer over night at 37° C. After addition of 20 μM ThS the signal was measured at 521 nm (emission) at an excitation wavelength of 440 nm. The results of this assay are presented in the IC50 column and DC50 column of Table 1 below.
DC50 [2],IC50 [2],SMILES,LDH [1]
169 µM,> 200 µM,"O=C(NNc1nc(-c2ccc(Br)cc2)cs1)c1ccc2ccccc2c1 [Comp. 3, N′-(4-(4-Bromophenyl)thiazol-2-yl)-2-naphthohydrazide]",4.2%
> 200 µM,> 200 µM,"O=C(NNc1nc(-c2ccc(Br)cc2)cs1)c1ccc(-c2ccccc2)cc1 [Comp. 39, N′-[4-(4-bromophenyl)-1,3-thiazol-2-yl]-1,1′-biphenyl-4-carbohydrazide]",4.9%
38.5 µM,17.5 µM,"O=C(NNc1nc(-c2cccc([N+](=O)[O-])c2)cs1)c1ccccc1F [Comp. 73, 2-fluoro-N′-[4-(3-nitrophenyl)-1,3-thiazol-2-yl]benzohydrazide]",–
44.6 µM,42.1 µM,"O=C(NNc1nc(-c2ccc(N3CCCC3)cc2)cs1)c1ccc(F)nc1 [Comp. 75, 6-fluoro-N′-[4-(4-pyrrolidin-1-ylphenyl)-1,3-thiazol-2-yl]nicotinohydrazide]",12.2%
> 200 µM,28.3 µM,"COc1cccc(-c2csc(NNC(=O)c3cccs3)n2)c1 [Comp. 23, N′-[4-(3-methoxyphenyl)-1,3-thiazol-2-yl]thiophene-2-carbohydrazide]",25.3%
0.9 µM,6.9 µM,"O=C(NNc1nc(-c2ccc([N+](=O)[O-])cc2)cs1)c1ccc(F)cc1 [Comp. 18, 4-fluoro-N′-[4-(4-nitrophenyl)-1,3-thiazol-2-yl]benzohydrazide]",46.9%
> 200 µM,> 200 µM,"O=C(CCc1ccccc1)NNc1nc(-c2ccc(Br)cc2)cs1 [Comp. 36, N′-[4-(4-bromophenyl)-1,3-thiazol-2-yl]-3-phenylpropanohydrazide]",3.3%
20.2 µM,18 µM,"O=C(NNc1nc(-c2ccc(Br)cc2)cs1)c1ccncc1 [Comp. 21, N′-[4-(4-bromophenyl)-1,3-thiazol-2-yl]isonicotinohydrazide]",1.5%
19.4 µM,51.3 µM,"COc1ccc(-c2csc(NNC(=O)c3ccccc3)n2)cc1 [Comp. 69, N′-[4-(4-methoxyphenyl)-1,3-thiazol-2-yl]benzohydrazide]",–
35.5 µM,25.3 µM,"O=C(NNc1nc(-c2ccccc2)cs1)c1cccs1 [Comp. 22, N′-(4-phenyl-1,3-thiazol-2-yl)thiophene-2-carbohydrazide]",14.8%
53.9 µM,20.5 µM,"O=C(NNc1nc(-c2ccc(-c3ccccc3)cc2)cs1)c1ccccc1F [Comp. 74, N′-[4-(1,1′-biphenyl-4-yl)-1,3-thiazol-2-yl]-2-fluorobenzohydrazide]",–
16.5 µM,33.6 µM,"O=C(NNc1nc(-c2ccccc2)cs1)c1ccc(F)cc1 [Comp. 24, 4-fluoro-N′-(4-phenyl-1,3-thiazol-2-yl)benzohydrazide]",5.5%
88 µM,> 200 µM,"O=C(NNc1nc(-c2cc3ccccc3oc2=O)cs1)c1ccc2ccccc2c1 [Comp. 4, N′-(4-(2-Oxo-2H-chromen-3-yl)thiazol-2-yl)-2-naphthohydrazide]",15.7%
> 200 µM,> 200 µM,"O=C(NNc1nc(-c2ccccc2)cs1)c1ccc(F)cc1 [Comp. 34, 4-fluoro-N′-(4-phenyl-1,3-thiazol-2-yl)benzohydrazide]",2.6%
> 200 µM,101 µM,"O=C(NNc1nc(-c2ccc(Cl)cc2)cs1)c1ccccc1F [Comp. 72, N′-[4-(4-chlorophenyl)-1,3-thiazol-2-yl]-2-fluorobenzohydrazide]",–
> 200 µM,184 µM,"O=C(NNc1nc(-c2ccc(F)cc2)cs1)c1ccc(Cl)cc1 [Comp. 31, 4-chloro-N′-[4-(4-fluorophenyl)-1,3-thiazol-2-yl]benzohydrazide]",56.1%
–,> 200 µM,"Cc1nc(NNC(=O)c2ccc(-c3ccccc3)cc2)sc1-c1ccc(Br)cc1 [Comp. 64, N′-[5-(4-bromophenyl)-4-methyl-1,3-thiazol-2-yl]-1,1′-biphenyl-4-carbohydrazide]",8.9%

DC50 [2],IC50 [2],SMILES,LDH [1]
127 µM,> 200 µM,"O=C(NNc1nc(-c2ccccc2)cs1)c1ccccc1F [Comp. 41, 2-fluoro-N′-(4-phenyl-1,3-thiazol-2-yl)benzohydrazide]",6.5%
31.7 µM,> 200 µM,"O=C(NNc1nc(-c2ccc(Br)cc2)cs1)c1ccc2[nH]cnc2c1 [Comp. 43, N′-[4-(4-bromophenyl)-1,3-thiazol-2-yl]-1H-benzimidazole-5-carbohydrazide]",11.5%
> 200 µM,> 200 µM,"COc1cccc(-c2csc(NNC(=O)c3ccncc3)n2)c1 [Comp. 35, N′-[4-(3-methoxyphenyl)-1,3-thiazol-2-yl]isonicotinohydrazide]",3.2%
> 200 µM,195 µM,"Cc1sc(NNC(=O)c2ccc(F)cc2)nc1-c1ccccc1 [Comp. 32, 4-fluoro-N′-(5-methyl-4-phenyl-1,3-thiazol-2-yl)benzohydrazide]",18.4%
0.7 µM,3.1 µM,"O=C(NNc1nc(-c2ccc([N+](=O)[O-])cc2)cs1)c1cccnc1 [Comp. 11, N′-[4-(4-nitrophenyl)-1,3-thiazol-2-yl]nicotinohydrazide]",12.9%
> 200 µM,> 200 µM,"O=C(NNc1nc(-c2cc3ccccc3oc2=O)cs1)c1ccc(-c2ccccc2)cc1 [Comp. 47, N′-[4-(2-oxo-2H-chromen-3-yl)-1,3-thiazol-2-yl]-1,1′-biphenyl-4-carbohydrazide]",44.7%
11.1 µM,23.2 µM,"O=C(NNc1nc(-c2cc3ccccc3oc2=O)cs1)c1cccnc1 [Comp. 2, N′-(4-(2-Oxo-2H-chromen-3-yl)thiazol-2-yl)nicotinohydrazide]",15.4%
0.5 µM,3.3 µM,"O=C(NNc1nc(-c2ccc(Br)cc2)cs1)c1cccnc1 [Comp. 12, N′-[4-(4-bromophenyl)-1,3-thiazol-2-yl]nicotinohydrazide]",13.6%
> 200 µM,35.5 µM,"O=C(NNc1nc(-c2cccc([N+](=O)[O-])c2)cs1)c1ccccc1Cl [Comp. 25, 2-chloro-N′-[4-(3-nitrophenyl)-1,3-thiazol-2-yl]benzohydrazide]",43.0%
0.4 µM,13.6 µM,"O=C(NNc1nc(-c2ccc([N+](=O)[O-])cc2)cs1)c1ccc2ccccc2c1 [Comp. 20, N′-(4-(4-Nitrophenyl)thiazol-2-yl)-2-naphthohydrazide]",18.7%
0.7 µM,4.9 µM,"O=C(NNc1nc(-c2ccc(N3CCCC3)cc2)cs1)c1ccc(F)cc1 [Comp. 15, 4-fluoro-N′-[4-(4-pyrrolidin-1-ylphenyl)-1,3-thiazol-2-yl]benzohydrazide]",−1.1%
30.5 µM,20.4 µM,"COc1ccc(-c2csc(NNC(=O)c3ccccc3F)n2)cc1 [Comp. 70, 2-fluoro-N′-[4-(4-methoxyphenyl)-1,3-thiazol-2-yl]benzohydrazide]",–
16.4 µM,> 200 µM,"O=C(NNc1nc(-c2ccccc2)cs1)c1ccc2ccccc2c1 [Comp. 42, N′-(4-phenyl-1,3-thiazol-2-yl)-2-naphthohydrazide]",8.2%
> 200 µM,> 200 µM,"O=C(NNc1nc(-c2ccc(Cl)cc2)cs1)c1ccccc1 [Comp. 71, N′-[4-(4-chlorophenyl)-1,3-thiazol-2-yl]benzohydrazide]",–
17.7 µM,10.9 µM,"CN(C(=O)c1ccc(-c2ccccc2)cc1)N(C)c1nc(-c2ccc([N+](=O)[O-])cc2)cs1 [Comp. 77, N,N′-dimethyl-N′-[4-(4-nitrophenyl)-1,3-thiazol-2-yl]-1,1′-biphenyl-4-carbohydrazide]",–
138 µM,67.6 µM,"CN(Nc1nc(-c2ccc([N+](=O)[O-])cc2)cs1)C(=O)c1ccc(-c2ccccc2)cc1 [Comp. 76, N-methyl-N′-[4-(4-nitrophenyl)-1,3-thiazol-2-yl]-1,1′-biphenyl-4-carbohydrazide]",–

SMILES,DC50 [2],IC50 [2],LDH [1]
"O=C(NNc1nc(-c2cc3ccccc3oc2=O)cs1)c1ccc2c(c1)OCO2 [Comp. 33, N′-[4-(2-oxo-2H-chromen-3-yl)-1,3-thiazol-2-yl]-1,3-benzodioxole-5-carbohydrazide]",> 200 µM,> 200 µM,2.0%
O=C(NNc1nc(-c2ccccc2)cs1)c1ccc(Cl)cc1,> 200 µM,> 200 µM,34.3%
"O=C(NNc1nc(-c2ccc([N+](=O)[O-])cc2)cs1)c1ccco1 [Comp. 17, N′-[4-(4-nitrophenyl)-1,3-thiazol-2-yl]-2-furohydrazide]",0.8 µM,6.3 µM,4.9%
"O=C(NNc1nc(-c2ccc(Br)cc2)cs1)c1ccco1 [Comp. 28, N′-[4-(4-bromophenyl)-1,3-thiazol-2-yl]-2-furohydrazide]",2 µM,60.9 µM,3.8%
"O=C(NNc1nc(-c2ccc(Br)cc2)cs1)c1ccc2c(c1)OCO2 [Comp. 38, N′-[4-(4-bromophenyl)-1,3-thiazol-2-yl]-1,3-benzodioxole-5-carbohydrazide]",> 200 µM,> 200 µM,4.6%
